Data taken from patent US20100093862A1, “POTENTIATION OF CELLULAR IMMUNITY USING HISTONE DEACETYLASE (HDAC) INHIBITORS” (Sapporo Medical Univeristy and Japan Science and Technology …, priority 2006, published 2010).

Key:
[1] = test system: Papilloma virus persistent infection cells (HeLa cells); experiment: Flow cytometry of cell surface HLA class I, papilloma virus persistent infection cells; type: cell-based; conditions: 4 mM valproic acid, 48 hours
Protocol: Papilloma virus persistent infection cells (HeLa cells) were cultured in 4 mM valproic acid-added culture medium (RPMI1640) or non additive culture medium for 48 hours, and reacted with an anti-pan-HLA class I antibody, W6/32 antibody and with FITC-labeled anti-mouse IgG antibody for 40 minutes respectively, and the cells were fixed in 0.1% formalin/PBS. The fluorescence intensities were measured by flow cytometer (FACS can, Beckton Dickinson).

class I and II HDAC = conditions: Non-patent documents 5 and 6; cited from earlier work
[2] = test system: EB virus persistent infection B cells (LG2EBV cells); experiment: Flow cytometry of cell surface HLA class I, EB virus persistent infection B cells; type: cell-based; conditions: 4 mM valproic acid, 48 hours
Protocol: EB virus persistent infection B cells (LG2EBV cells) were cultured in 4 mM valproic acid-added culture medium (RPMI1640) or non additive culture medium for 48 hours, and reacted with an anti-pan-HLA class I antibody, W6/32 antibody and with FITC-labeled anti-mouse IgG antibody for 40 minutes respectively, and the cells were fixed in 0.1% formalin/PBS. The fluorescence intensities were measured by flow cytometer (FACScan, Beckton Dickinson).

[3] = test system: human breast cancer cell line MCF7 cells transplanted into SCID mice; experiment: Immunostaining of MCF7 tumor transplanted into SCID mice after oral VPA; type: in vivo; conditions: SCID mouse, water containing 0.4% VPA for 10 days, vs control
Protocol: A human breast cancer cell line MCF7 cells were transplanted into SCID mice. […] One mouse was supplied with water containing 0.4% valproic acid (VPA, Sigma) for 10 days, and the other mouse was supplied with water with no additive as control. […] Following the method according to example 4, treatment of tissue slices as well as immunostaining with anti-HLA class I antibody (EMR8-5) and anti-B2M antibody (EMR-B6) were performed.

HMC-1 cells [4] = experiment: Chromatin immunoprecipitation with anti-acetylated histone H3 antibody and PCR of B2M gene, HMC-1 cells; type: cell-based, human; conditions: 4 mM VPA, 48 hours
Protocol: (§1) Human breast cancer cell lines, that is, MCF-7 cells and HMC-1 cells were used to culture in the presence of 100 nM TSA (Sigma, USA) for 24 hours or 4 mM VPA (Sigma, USA) for 48 hours, respectively followed by extracting chromatin from the cells according to the manufacturer's instructions (Upstate Inc., USA) and immunoprecipitating the chromatin using anti-acetylated histone H3 antibody (Upstate Inc., USA) (see Assam El-Osta, et al. 2002. MOLECULAR AND CELLULAR BIOLOGY 22(6). p. 1844-1857). The genes binding to the acetylated histones were amplified by using PCR with the B2M gene-specific primers ([…] and […]), electrophoresed on 1% agarose gel followed by detecting with a transilluminator in the presence of ethidium bromide.

[5] = test system: HIV infection T cells (clone 8E5); experiment: Flow cytometry of cell surface HLA class I, HIV infection T cells; type: cell-based; conditions: HIV infection T cells (8E5), 4 mM valproic acid, 48 hours
Protocol: HIV infection T cells (clone 8E5, purchased from ATCC) were cultured in 4 mM valproic acid-added culture medium (RPMI1640) or non additive culture medium for 48 hours, and reacted with an anti-pan-HLA class I antibody, W6/32 antibody and with FITC-labeled anti-mouse IgG antibody for 40 minutes respectively, and the cells were fixed in 0.1% formalin/PBS. The fluorescence intensities were measured by flow cytometer (FACScan, Beckton Dickinson).

[6] = test system: Measles virus persistent infection B cells (Raji-ZH cells); experiment: Flow cytometry of cell surface HLA class I, measles virus persistent infection B cells; type: cell-based; conditions: 4 mM valproic acid, 48 hours
Protocol: Measles virus persistent infection B cells (Raji-ZH cells) were cultured in 4 mM valproic acid-added culture medium (RPMI1640) or non additive culture medium for 48 hours, and reacted with an anti-pan-HLA class I antibody, W6/32 antibody and with FITC-labeled anti-mouse IgG antibody for 40 minutes respectively, and the cells were fixed in 0.1% formalin/PBS. The fluorescence intensities were measured by flow cytometer (FACScan, Beckton Dickinson).

HMC-1 cells [7] = experiment: Flow cytometry of cell surface MHC class I antigen (W6/32 antibody), HMC-1 cells; type: cell-based, human; conditions: vs non-treated
Protocol: (§2) Using the same cells as those in the examples 1 and 2, MCF-7 cells and HMC-1 cells were cultured for 24 hours in the presence of HDAC inhibitor TSA (100 nM) or for 48 hours in the presence of HDAC inhibitor VPA (4 mM), respectively, and the level of MHC class I antigen expressing on the cell surface was analyzed by a flow cytometer (Becton Dickinson).
(§3) (1) 1×10^6 cells were floated in […] PBS buffer, added a primary antibody (an antipan-HLA class I antibody W6/32 (Barnstable, C. J., Bodmer, W. J., Brown, G., Galfre, G., Milstein, C., Williams, A. F., and Zeigler, A. (1978) Cell 14, 9-20)) and incubated for 40 minutes at 4° C. (2) The cells were washed twice with PBS. (3) To the suspended cell was added a secondary antibody (FITC-labeled anti-mouse IgG antibody (IPL, USA)) and incubated for 40 minutes at 4° C. (4) The cells were washed twice with PBS, floated in PBS added with 1% formalin followed by analyzing FITC level of the cell surface by a flow cytometer.

[8] = test system: Mumps virus persistent infection B cells (Akata-MP1 cells); experiment: Flow cytometry of cell surface HLA class I, mumps virus persistent infection B cells; type: cell-based; conditions: 4 mM valproic acid, 48 hours
Protocol: Mumps virus persistent infection B cells (Akata-MP1 cells) were cultured in 4 mM valproic acid-added culture medium (RPMI1640) or non additive culture medium for 48 hours, and reacted with an anti-pan-HLA class I antibody, W6/32 antibody and with FITC-labeled anti-mouse IgG antibody for 40 minutes respectively, and the cells were fixed in 0.1% formalin/PBS. The fluorescence intensities were measured by flow cytometer (FACScan, Beckton Dickinson).

HMC-1 cells [9] = experiment: Western blot of intracellular B2M, HLA class I heavy chain and actin, HMC-1 cells; type: cell-based, human; conditions: TSA 100 nM, 24 hours
Protocol: (§4) (1) Using the same cells as those in the example 1, MCF-7 cells and HMC-1 cells were cultured in the presence of TSA, a HDAC inhibitor, (100 nM) for 24 hours respectively, followed by harvesting them. (2) 1×10^6 cells are lysed in […] cell lysate (RIPA buffer) and a soluble fraction is harvested as a lysate. SDS sample buffer was added to the lysate. (3) The protein samples were loaded on 7.5% SDS polyacrylamide gel and electrophoresed. (4) The proteins in the gel were transferred on a PVDF membrane (Millipore). (5) The transferred membrane was immersed in 5% skim milk in PBS and blocked for about one hour. (6) The transferred membrane was immersed in a primary antibody (anti-pan-HLA class I heavy chain antibody EMR8-5 (Hokudo, Sapporo), or anti-B2M antibody EMRB6 (Hokudo, Sapporo), or anti-actin antibody (DAKO), and incubated for one hour at room temperature. (7) The transferred membrane was washed with a lavage PBS-T (0.05% Tween 20/PBS, pH7.4) three times. (8) The transferred membrane was immersed in a secondary antibody peroxidase-labeled anti-mouse IgG antibody (KPL, USA) and incubated for one hour at room temperature. (9) The transferred membrane was washed with a lavage PBS-T (0.05% Tween 20/PBS, pH7.4) three times. […] (11) Luminescent signals were detected by exposure to X ray film.

MCF-7 cells [10] = experiment: Flow cytometry of cell surface MHC class I antigen (W6/32 antibody), MCF-7 cells; type: cell-based, human; conditions: TSA 100 nM, 24 hours, vs non-treated
Protocol: as §2, §3

MCF-7 cells [11] = experiment: Chromatin immunoprecipitation with anti-acetylated histone H3 antibody and PCR of B2M gene, MCF-7 cells; type: cell-based, human; conditions: 100 nM TSA, 24 hours
Protocol: as §1

MCF-7 cells [12] = experiment: Western blot of intracellular B2M, HLA class I heavy chain and actin, MCF-7 cells; type: cell-based, human; conditions: TSA 100 nM, 24 hours
Protocol: as §4

Structure (SMILES)	HLA class I level on a cell surface [1]	HDAC class selectivity (class I and II HDAC)	HLA class I level on a cell surface [2]	expression level of B2M in tumor [3]	expression level of HLA class I antigen in tumor [3]	B2M gene detected in anti-acetylated histone H3 immunoprecipitate (HMC-1 cells [4])	HLA class I level on a cell surface [5]	HLA class I level on a cell surface [6]	increase of MHC class I level of the cell surface (HMC-1 cells [7]; VPA 4 mM, 48 hours)	HLA class I level on a cell surface [8]	expression level of intracellular HLA heavy chain and actin proteins (HMC-1 cells [9])	level of intracellular B2M protein (HMC-1 cells [9])	increase of MHC class I level of the cell surface (MCF-7 cells [10])	B2M gene detected in anti-acetylated histone H3 immunoprecipitate (MCF-7 cells [11])	expression level of intracellular HLA heavy chain and actin proteins (MCF-7 cells [12])	level of intracellular B2M protein (MCF-7 cells [12])	increase of MHC class I level of the cell surface (HMC-1 cells [7]; TSA 100 nM, 24 hours)
CCCC(CCC)C(=O)O [VPA, valproic acid]	recovery of expression was observed	preferably inhibits class I MAC compared with class II HDAC	recovery of expression was observed	increased compared to control group	increased compared to control group	B2M gene was detected together with acetylated histones	recovery of expression was observed	recovery of expression was observed	about 10 times	recovery of expression was observed							
CC(/C=C/C(=O)NO)=C\[C@@H](C)C(=O)c1ccc(N(C)C)cc1 [TSA, tricostatin A]		inhibits class I and II HDAC									no great difference	remarkably increased	about 10 times	B2M gene was detected together with acetylated histones	no great difference	remarkably increased	about 10 times
